# In patent publication US5334582A, “Pharmaceutical bacteriocin compositions and methods for using the same” (Applied Microbiology, Inc., priority 1993, dated 1994):
# Where two headings read alike, the source gives them in different places.
# How the values were obtained:
# Escherichia coli = conditions: for % survival at 1 min: nisin 100 μg/ml and/or EDTA 1.0 mM
# Description: The rapid activities of various chelator-enhanced nisin formulations were evaluated in acid vehicles in a germicidal suspension assay.
# E. coli cells from an overnight Trypticase soy nutrient agar (TSA) were resuspended to a density measured as an absorbance of 1.0 at 600 nm in sterile ddH2 O. The reaction of the cells with each of the bactericidal test formulations analyzed is started by addition of 30 μl of cells to 970 μl of test formulation. The reaction mixture was incubated at 37° C. for at least 1 minute and then centrifuged in a microfuge for 1 minute. The cell pellet was washed by resuspension in 1 ml of neutralization buffer. (The neutralization buffer: 50 mM Tris-HCl, pH 7.0, 5 mM MgSO4, 20 mM CaCl2, 0.1 M NaCl and 0.1% gelatin was prepared by first making Tris buffer and adjusting the pH. The salts and gelatin were then added and the solution stirred with heat until the solution was clear. The solution was then autoclaved for 20 min. The neutralization buffer was used without dilution.) The cells were centrifuged in a microfuge for 1 minute and resuspended in 1 ml of neutralization buffer. The viable count was determined by spreading 100 μl of bacterial suspension and serial dilutions thereof in neutralization buffer on nutrient agar and scoring surviving colonies after 24 h at 37° C. Percent survival relative to untreated controls was calculated from the scored values.
# E. coli strain ATCC8739 = assay: nisin-citrate agar growth inhibition assay; assay type: cell-based; conditions: Trypticase Soy Agar
# Description: However, nisin in the presence of citrate is active against gram negative bacteria. […] This nisin-citrate agar assay has much more general applicability. The assay provides a method for screening potential agents other than citrate in combination with nisin for their potential properties as enhancers of nisin's inherent bactericidal activity.
# E. coli is resuspended to an optical density of 1.0 at A600. A 100 μl sample of the bacterial suspension is spread uniformly on Trypticase Soy nutrient agar (TSA) supplemented with various concentrations of citrate (eg. 0.1%, 0.3%, 1.0%, 3.0%) and incubated for 1 hour at 37° C. A nisin stock solution and serial dilutions thereof in 0.1% bovine serum albumin (BSA), are prepared and 5 μl are taken from each and deposited onto the growing bacterial lawn. The TSA plates are then incubated for 24 hours at 37° C. After 24 hours at 37° C., E. coli grown on TSA supplemented with citrate form a confluent lawn. […] The effectiveness of nisin against the gram negative bacteria can be assessed from determining the minimum amount of nisin required to produce a clear zone of growth inhibition. As the concentration of citrate in the nutrient agar is increased, less nisin is required to inhibit the growth of E. coli, as is illustrated by the data shown in Table 6.
# [1] = 0.1% w/v acetate pH 3.5, 37° C.
# [2] = 0.1% w/v citrate pH 3.5, 37° C.
# [3] = 0.1% w/v lactate pH 3.5, 37° C.
# [4] = 0.3% w/v acetate pH 3.5, 37° C.
# [5] = 0.3% w/v citrate pH 3.5, 37° C.
# [6] = 0.3% w/v lactate pH 3.5, 37° C.
# [7] = 1.0% w/v acetate pH 3.5, 37° C.
# [8] = 1.0% w/v citrate pH 3.5, 37° C.
# [9] = 3.0% w/v citrate pH 3.5, 37° C.
# [10] = pH 2.0, 20 mM Na acetate buffer, 37° C., initial count 4 × 10^7 cfu/ml
Compound,% survival at 1 min (Escherichia coli; [1]) [%],% survival at 1 min (Escherichia coli; [2]) [%],% survival at 1 min (Escherichia coli; [3]) [%],% survival at 1 min (Escherichia coli; [4]) [%],% survival at 1 min (Escherichia coli; [5]) [%],% survival at 1 min (Escherichia coli; [6]) [%],% survival at 1 min (Escherichia coli; [7]) [%],% survival at 1 min (Escherichia coli; [8]) [%],"% survival at 1 min (Escherichia coli; 1.0% w/v lactate pH 3.5, 37° C.) [%]",% survival at 1 min (Escherichia coli; [9]) [%],% survival at 1 min (Escherichia coli; [10]) [%],Nisin NIC (nominal inhibitory concentration minimally required to prevent growth) (E. coli strain ATCC8739; 0% citrate),Nisin NIC (nominal inhibitory concentration minimally required to prevent growth) (E. coli strain ATCC8739; 0.1% citrate) [µg/mL],Nisin NIC (nominal inhibitory concentration minimally required to prevent growth) (E. coli strain ATCC8739; 0.3% citrate) [µg/mL],Nisin NIC (nominal inhibitory concentration minimally required to prevent growth) (E. coli strain ATCC8739; 1.0% citrate) [µg/mL],Nisin NIC (nominal inhibitory concentration minimally required to prevent growth) (E. coli strain ATCC8739; 3.0% citrate) [µg/mL],"% survival at 1 min (Escherichia coli; 3.0% w/v acetate pH 3.5, 37° C.) [%]",activity towards gram negative bacteria (Escherichia coli; nisin by itself or in the presence of citrate),"% survival at 1 min (Escherichia coli; pH 3.5, 20 mM Na acetate buffer, 37° C.) [%]","% survival at 1 min (Escherichia coli; pH 4.0, 20 mM Na acetate buffer, 37° C.) [%]"
O=C(O)CN(CCN(CC(=O)O)CC(=O)O)CC(=O)O [EDTA],40,100,5.1,25,50.0,0.46,25,47.9,0.91,100,0.07,,,,,,,,,
nisin,9.6,0.003,4.4,70,0.0007,0.24,100,0.56,,14.6,0.28,"3,333 μg/ml",370,123,13.7,0.06,100,ineffective,100,100
